The values below come from patent US10004775B2, “Inhibition of hypoxia-inducible factor activity with carica papaya extracts” (The Regents of the University of California, priority 2013, dated 2018).

One assay relates to Saos-2 cells. Description: MTT assay of cell viability after 24 h treatment in normoxic or hypoxic conditions. In kind it is cell-based, human. As to conditions: FIG. 1A. Background: Tetrazolium dyes change colour on reduction, which living cells bring about.
A further assay deals with HIF. As to the kind of experiment: HIF reporter assay (hypoxia-driven firefly luciferase reporter). To be noted: cisplatin 0.1 mM; hypoxic HRE-luc Saos2 cells. In kind it is cell-based, human. As for the experimental part: A human osteosarcoma cell line, Saos-2 stably expressing four copies of the erythropoietin hypoxia response elements (HRE-luc Saos2; […] et al., Malaysian Patent Application #: PI 2012003492), was cultured in DMEM medium (PAA, USA) supplemented with 10% (v/v) fetal bovine serum (FBS; PAA, USA) and 1% (v/v) antibiotic-antimycotic (PAA, USA) in a humidified incubator supplied with ambient oxygen and 5% CO2 at 37° C. An hypoxic gaseous environment was created by incubating cells in a ProOx in vitro chamber (BioSpherix), controlled by ProOx model 110 (BioSpherix). The cells were supplied 0.5% O2, 94.5% N2 and 5% CO2 at 37° C. Cells were co-transfected with a hypoxia-driven firefly luciferase reporter plasmid construct containing four copies of the erythropoietin (EPO) hypoxia response elements (HRE) and a pRL-CMV expressing Renilla luciferase as described previously (Kaluz et al., 2008, […] et al., 2009, […] et al. Malaysian Patent Application No. PI 2012003492). Transfected cells were treated with appropriate concentrations of plant extracts and incubated in either normoxic or hypoxic conditions. After 24 h, firefly and Renilla luciferase signal intensities were measured (Kaluz et al., 2008, […] et al, 2009). Percent HIF inhibition was calculated as a ratio of the difference between untreated and plant extract-treated sample to the untreated sample. […]
(In general: A reporter such as luciferase makes a cellular process visible.)

The structures appear in SMILES notation.

Procedure for Saos-2 cells: The leaves were washed with distilled water and left to air-dry at room temperature or in an oven at 40° C. until a constant weight was obtained. Dried leaves were then blended into a powder form, soaked and extracted in methanol at a 1:3 ratio (w/v) for three days at room temperature. Extracts were filtered by Whatman No. 1 filter paper with the aid of a vacuum pump. The residues were re-extracted twice using the same methanolic method. Filtrates were then concentrated by rotary evaporator at a maximum of 40° C. Concentrated extracts were collected in glass vials with push-in caps and dried in an oven at 40° C. until a constant weight was obtained. All of the crude extracts were stored −80° C. […] These concentrations were determined empirically and selected to cover a range of effects, ranging from no effect to significant cytotoxicity. […] After a further 4 h of incubation in 5% CO2 at 37° C., formazan precipitates that formed were dissolved with 100 μl of DMSO and the reaction was read in a microplate reader (Model 550, BioRad, Hercules, Calif.) at 570 nm absorbance and 630 nm as the reference wavelength.

`CN1C(=O)[C@]2(Cc3cn([C@]45C[C@@]67SS[C@@](CO)(C(=O)N6[C@H]4Nc4ccccc45)N(C)C7=O)c4ccccc34)SS[C@@]1(CO)C(=O)N2C` [chetomin]: the “IC50 in hypoxia compared with normoxia, in words” value in the assay with Saos-2 cells is recorded as “increased in hypoxia”.

For the compound `N.N.[Cl][Pt][Cl]` [cisplatin], the “IC50 in hypoxia compared with normoxia, in words” value in the assay with Saos-2 cells is given as “significantly higher than in normoxia”. Besides, the “percent HIF inhibition” value in the assay with HIF is listed as “around 60%”.
